# Test system: Caenorhabditis elegans
# Test: C. elegans fast killing assay on PGS/PG agar
# Type: in vivo
# Procedure: The rate of killing observed under these conditions is defined as “slow killing.” Briefly, under the slow killing conditions, 5 μl of an overnight liquid culture of PA14 is spread on the center of an NGM (or M9) agar plate and grown for 37° C. for 24 hours. The plates are then allowed to cool to room temperature for several hours. Worms at the fourth larval stage (L4) are added to the agar but not in contact with the bacterial lawn. The worms typically move toward the bacterial lawn and commence feeding. In contrast, when PA14 worms were grown on peptone-glucose-sorbitol (PGS), a richer medium of higher osmolarity, a different result was obtained. When L4 worms were placed on PGS plates, the worms became sluggish, then paralyzed, and then died within 4–24 hours (FIG. 5). Some worms died even before coming into direct contact with the bacterial lawn. This more rapid killing on PGS agar is termed “fast killing.”
# Nematode Killing Assay. Worm killing by P. aeruginosa was performed in a plate assay. For the fast killing assay, 5 μl of an overnight King's B (King et al. (1954) J. Lab. Clin. Med. 44:301–307) culture of PA14, or the test strains, were spread on 3.5 cm diameter plates containing PGS or PG agar. A bacterial lawn of about 2 cm diameter grew in the center of plate after incubation at 37° C. for 24 hours. After cooling to room temperature (ranges from 4–12 hours after removal from 37° C. incubator), 40 worms were added to the agar. Unless otherwise stated all worm strains were cultured at 20° C., and the fourth larval (L4) stage was used. The experiments were performed in 3–4 replicates per strain. Bristol N2 was used as the wild-type strain and E. coli OP50 for the negative control. Plates seeded with worms were incubated in 25° C. Worm mortality was scored at various time points. A worm was considered dead when no movement was detectable when touched lightly with an eye-lash pick. Slow killing assays were performed generally as described above.
molecule,measurement,setting,value
OC[C@@H](O)[C@@H](O)[C@H](O)[C@@H](O)CO [sorbitol],effect on PA14 fast killing of C. elegans (in words),"0.15 M added to Peptone-Glucose medium, compared to 0.1 M or no sorbitol",significantly increased the rate of killing
[Cl][Fe]([Cl])[Cl] [FeCl3],effect on PA14 fast killing of C. elegans (in words),100 μM added to PGS,significantly reduced killing
EDDA,effect on PA14 fast killing of C. elegans (in words),400 μM added to PGS,did not significantly affect fast killing

# Source: patent publication US7166270B1, “Methods of screening compounds useful for prevention of infection or pathogenicity” (The Netherlands Cancer Institute, priority 1995, dated 2007)
